This is an account of results in the NIST ThermoML archive (doi:10.1021/je800105r).

Numbers after ± are expanded uncertainties.

The series is described as follows: activity coefficient (dimensionless); of the first substance listed, at infinite dilution; xn = mol fraction of the nth substance listed. To be noted: Liquid, Chromatography, x1 = 0.

Take `C#CCCCC` [1-hexyne] + CCCCCCCCCCCCCC[P+](CCCCCC)(CCCCCC)CCCCCC.O=S(=O)([N-]S(=O)(=O)C(F)(F)F)C(F)(F)F: the activity coefficient (303.15 K) worked out at 0.66 ± 0.05, the activity coefficient (308.15 K) came to 0.68 ± 0.05, the activity coefficient (313.15 K) amounted to 0.71 ± 0.05 and the activity coefficient (318.15 K) turned out to be 0.74 ± 0.05.
As for `CO` [methanol] + CCCCCCCCCCCCCC[P+](CCCCCC)(CCCCCC)CCCCCC.O=S(=O)([N-]S(=O)(=O)C(F)(F)F)C(F)(F)F, the activity coefficient was found to be 1.26 ± 0.08 (303.15 K), 1.24 ± 0.08 (308.15 K), 1.23 ± 0.08 (313.15 K) and 1.23 ± 0.08 (318.15 K).
As to `C=CCCCC` [hex-1-ene] + CCCCCCCCCCCCCC[P+](CCCCCC)(CCCCCC)CCCCCC.O=S(=O)([N-]S(=O)(=O)C(F)(F)F)C(F)(F)F, the activity coefficient (303.15 K) came to 0.88 ± 0.06, the activity coefficient (308.15 K) was found to be 0.9 ± 0.06, the activity coefficient (313.15 K) amounted to 0.92 ± 0.06 and the activity coefficient (318.15 K) came out at 0.97 ± 0.06.
Take `C1CCCC1` [cyclopentane] + CCCCCCCCCCCCCC[P+](CCCCCC)(CCCCCC)CCCCCC.O=S(=O)([N-]S(=O)(=O)C(F)(F)F)C(F)(F)F: the activity coefficient (303.15 K) worked out at 0.68 ± 0.05, the activity coefficient (308.15 K) is 0.69 ± 0.05, the activity coefficient (313.15 K) worked out at 0.71 ± 0.05 and the activity coefficient (318.15 K) was found to be 0.73 ± 0.05.
Take `C1CCCCCC1` [cycloheptane] + CCCCCCCCCCCCCC[P+](CCCCCC)(CCCCCC)CCCCCC.O=S(=O)([N-]S(=O)(=O)C(F)(F)F)C(F)(F)F: the activity coefficient (303.15 K) turned out to be 0.88 ± 0.06, the activity coefficient (308.15 K) came out at 0.91 ± 0.06, the activity coefficient (313.15 K) stood at 0.92 ± 0.06 and the activity coefficient (318.15 K) stood at 0.94 ± 0.06.
For `C=CCCCCC` [1-heptene] + CCCCCCCCCCCCCC[P+](CCCCCC)(CCCCCC)CCCCCC.O=S(=O)([N-]S(=O)(=O)C(F)(F)F)C(F)(F)F, the activity coefficient by setting is: (303.15 K) 1 ± 0.06; (308.15 K) 1.02 ± 0.06; (313.15 K) 1.04 ± 0.07; (318.15 K) 1.09 ± 0.07.
Taken in the same sequence, the figures for `CCCCCC` [hexane] + CCCCCCCCCCCCCC[P+](CCCCCC)(CCCCCC)CCCCCC.O=S(=O)([N-]S(=O)(=O)C(F)(F)F)C(F)(F)F were 1.09 ± 0.07, 1.1 ± 0.07, 1.13 ± 0.07 and 1.17 ± 0.07.
For `C=CCCC` [1-pentene] + CCCCCCCCCCCCCC[P+](CCCCCC)(CCCCCC)CCCCCC.O=S(=O)([N-]S(=O)(=O)C(F)(F)F)C(F)(F)F the same measures were 0.78 ± 0.05, 0.8 ± 0.05, 0.82 ± 0.05 and 0.85 ± 0.05.
Taken in the same sequence, the figures for `CCO` [ethanol] + CCCCCCCCCCCCCC[P+](CCCCCC)(CCCCCC)CCCCCC.O=S(=O)([N-]S(=O)(=O)C(F)(F)F)C(F)(F)F were 1.36 ± 0.09, 1.33 ± 0.09, 1.31 ± 0.09 and 1.3 ± 0.08.
In the case of `C#CCCCCCC` [1-octyne] + CCCCCCCCCCCCCC[P+](CCCCCC)(CCCCCC)CCCCCC.O=S(=O)([N-]S(=O)(=O)C(F)(F)F)C(F)(F)F, the activity coefficient (303.15 K) was 0.53 ± 0.04, the activity coefficient (308.15 K) was 0.55 ± 0.04, the activity coefficient (313.15 K) worked out at 0.58 ± 0.04 and the activity coefficient (318.15 K) is 0.63 ± 0.04.
On to `C1CCCCC1` [cyclohexane] + CCCCCCCCCCCCCC[P+](CCCCCC)(CCCCCC)CCCCCC.O=S(=O)([N-]S(=O)(=O)C(F)(F)F)C(F)(F)F, for which the activity coefficient is, setting by setting: (303.15 K) 0.78 ± 0.05; (308.15 K) 0.8 ± 0.05; (313.15 K) 0.82 ± 0.05; (318.15 K) 0.85 ± 0.05.
As to `CCCCCCC` [heptane] + CCCCCCCCCCCCCC[P+](CCCCCC)(CCCCCC)CCCCCC.O=S(=O)([N-]S(=O)(=O)C(F)(F)F)C(F)(F)F, the activity coefficient is 1.26 ± 0.08 (303.15 K), 1.27 ± 0.08 (308.15 K), 1.3 ± 0.08 (313.15 K) and 1.33 ± 0.09 (318.15 K).
In the case of `c1ccccc1` [benzene] + CCCCCCCCCCCCCC[P+](CCCCCC)(CCCCCC)CCCCCC.O=S(=O)([N-]S(=O)(=O)C(F)(F)F)C(F)(F)F, the activity coefficient by setting is: (303.15 K) 0.38 ± 0.03; (308.15 K) 0.39 ± 0.03; (313.15 K) 0.4 ± 0.03; (318.15 K) 0.42 ± 0.04.
Taken in the same sequence, the figures for `CCCO` [propan-1-ol] + CCCCCCCCCCCCCC[P+](CCCCCC)(CCCCCC)CCCCCC.O=S(=O)([N-]S(=O)(=O)C(F)(F)F)C(F)(F)F were 1.42 ± 0.09, 1.4 ± 0.09, 1.39 ± 0.09 and 1.38 ± 0.09.
As for `CCCCC` [pentane] + CCCCCCCCCCCCCC[P+](CCCCCC)(CCCCCC)CCCCCC.O=S(=O)([N-]S(=O)(=O)C(F)(F)F)C(F)(F)F, the activity coefficient came out at 0.94 ± 0.06 (303.15 K), 0.96 ± 0.06 (308.15 K), 0.99 ± 0.06 (313.15 K) and 1.02 ± 0.06 (318.15 K).
As to `C#CCCCCC` [1-heptyne] + CCCCCCCCCCCCCC[P+](CCCCCC)(CCCCCC)CCCCCC.O=S(=O)([N-]S(=O)(=O)C(F)(F)F)C(F)(F)F, the activity coefficient reads like this: (303.15 K) 0.59 ± 0.04; (308.15 K) 0.63 ± 0.04; (313.15 K) 0.66 ± 0.05; (318.15 K) 0.7 ± 0.05.
For `CCCCCCCC` [octane] + CCCCCCCCCCCCCC[P+](CCCCCC)(CCCCCC)CCCCCC.O=S(=O)([N-]S(=O)(=O)C(F)(F)F)C(F)(F)F, the activity coefficient is, setting by setting: (303.15 K) 1.32 ± 0.09; (308.15 K) 1.36 ± 0.09; (313.15 K) 1.4 ± 0.09; (318.15 K) 1.46 ± 0.1.
`C=CCCCCCC` [oct-1-ene] + CCCCCCCCCCCCCC[P+](CCCCCC)(CCCCCC)CCCCCC.O=S(=O)([N-]S(=O)(=O)C(F)(F)F)C(F)(F)F: the activity coefficient by setting is: (303.15 K) 1.11 ± 0.07; (308.15 K) 1.14 ± 0.07; (313.15 K) 1.16 ± 0.07; (318.15 K) 1.21 ± 0.08.
